Non-standard residues stand in square brackets, D forms with d. pGlu = O=C1CC[C@@H](C(=O)O)N1
Legend:
Assay type in all cases: in vivo, human
knee pain = experiment: Example 42: analgesic effect on knee pain following twisting of leg, topical; conditions: 1% (w/v) in WEP442, topical
Text: A subject, twisted their left leg during work on building construction, causing substantial pain in the left knee. The pain persisted into the late evening, preventing them from falling asleep.

hangover headache = experiment: Example 74: analgesic effect on severe hangover headache, topical; conditions: 0.5% (w/v) in WEP442, topical
Text: They were provided a solution composition containing 0.5% (w/v) of N-Ac-Tyr-Pro-Phe-Phe-NH2 (SEQ ID NO: 23) in WEP442 which they topically applied to the neck, peripheral scalp, and entire face and forehead.

[1] = test system: bursitis of the right elbow; experiment: Example 36: analgesic effect on pain of elbow bursitis, topical
Text: A subject had painful bursitis of the right elbow that impaired their performance as a golfer. […] They played golf later the same day and experienced no bursitis pain during the game.

[2] = test system: knee and lower back pain from osteoarthritis; experiment: Example 14: analgesic effect on osteoarthritic knees and lower back, topical; conditions: 1% (w/v) in WEP442, about 60 ml to whole body
Description: A subject had severe knee pain for many years and lower back pain for approximately one year from osteoarthritis, and in both cases, the pain was partially relieved by oral opiates. One day before bedtime, the subject took a low dose of an opiate, but the next morning, they still developed substantial pain in the knees and moderate pain in the lower back.
The subject topically applied approximately 60 ml of a solution composition containing 1% (w/v) N-Ac-Tyr-Pro-Phe-Phe-NH2 (SEQ ID NO: 23) in WEP442 to the whole body, excluding only the scalp, face and soles. […] This lowered degree of pain was maintained for about 7 hours.

severe frontal headaches = experiment: Example 47: analgesic effect on severe headaches, topical
Text: A subject had severe frontal headaches occurring every 5-10 days.

[3] = test system: arthritic pain in upper back; experiment: Example 20: analgesic effect on arthritic pain of upper back, topical
Description: A subject had arthritic pain in their upper back and associated paresthesia of their fingers, described as feelings of tingling and “pins and needles”. These symptoms had been present for about 1 year. […] Pain relief lasted for 10-12 hours. […] Repeated applications for 10-12 days gave the same results.

[4] = test system: osteoarthritis of the knees; experiment: Example 94: osteoarthritic knees, intra-articular injection of N-Ac derivative; conditions: approximately 1% (w/v) in water, 1 ml per knee intra-articular
Description: A subject with osteoarthritis of the knees that progressively worsened over the years, evaluated the analgesic effectiveness of many topical preparations of tetrapeptide derivatives of the invention on numerous occasion. After such experiences, they decided to self-inject […] knees with a sterile aqueous preparation of N-Ac-Tyr-Pro-Phe-Phe-NH2, (SEQ ID NO: 23) at a concentration of approximately 1% (w/v) in water. Via the sub-patellar route, each knee was injected with 1 ml of the preparation, containing approximately 10 mg of the tetrapeptide . […] Walking about with the use of a wheeled walker at that time, the subject experienced knee pain, but at a level distinctly lower than earlier days before the injection. This degree of substantially diminished knee pain continued for an additional 16 hours when the return of pain was detected (3+ effect).

hallux valgus (bunion) = experiment: Example 26: analgesic effect on painful inflammation of hallux valgus, topical
Text: A subject had hallux valgus of the right 1st metatarsal-proximal phalangeal joint for a duration of 5-6 years. Pain in the joint was episodic and associated with inflammation. […] A second application of the solution was made that evening, even though there was no pain. […] Such improvement lasted over the next 2 weeks.

[5] = test system: finger pain following trauma; experiment: Example 31: analgesic effect on painful inflammation following trauma, topical; conditions: 1% (w/v) in WEP442, topical
Description: A subject, experienced sharp pain in their right index finger while trying to loosen a screw-on lid of a fruit jar with their right hand. After about 10 minutes, the pain became throbbing in nature and very intense. The proximal interphalangeal became swollen and discolored (black and blue) from subcutaneous hemorrhage. […] Discoloration of the joint faded over the next several days.

[6] = test system: osteoarthritis of the fingers and wrists; experiment: Example 82: pain and flexibility of fingers and wrists affected by osteoarthritis, topical
Text: A subject had osteoarthritis of the fingers and wrists for about 10 years, with substantial worsening over the past several months. Symptoms included painful finger joints and wrists. The pain was much worsened by flexion, so that making a first was too painful to try. Moreover, complete flexion had not been possible because of actual physical limitations. Anatomical signs of their disorder, e.g., enlarged finger joints, were conspicuous in their case. […] Additionally, complete flexion of the fingers and making of a tight first could be done without any discomfort.

[7] = test system: chronic osteoarthritis of the knees; experiment: Example 53: comparative analgesic efficacy in topical treatment of knee osteoarthritis; conditions: 1% (w/v) in WEP442, maintenance treatment twice daily
Description: A subject with chronic osteoarthritis of the knees participated in this study. Each tetrapeptide derivative was dissolved in WEP442 to make a 1% (w/v) solution. Early in the morning, the solution was applied to a knee, which was immediately wrapped in plastic film from a roll 5 inches wide. The film wrap was left in place for about 7-8 hours, and then it was removed. Such application was repeated at bedtime and removed several hours later during the night. Each 1% (w/v) solution of tetrapeptide derivative was so applied for 2 days and efficacy was evaluated by the subject. No topical treatment was made during an ensuing interval of 2-3 days, at which time treatment with a 1% (w/v) solution of another derivative was initiated and carried out as described above. In total, six tetrapeptide derivatives were evaluated for analgesic efficacy.
The following tetrapeptide derivative was judged to provide 2+ to 3+ pain relief by clinical evaluation: N-Pa-Tyr-Pro-Phe-Phe-NH2(SEQ ID NO: 64).
After the above evaluation period, maintenance treatment was done with a composition containing 1% (w/v) of N-Pg-Tyr-Pro-Phe-Phe-NH2 (SEQ ID NO: 44) in WEP442 applied twice daily.

Compound: CC(=O)N[C@@H](Cc1ccc(O)cc1)C(=O)N1CCC[C@H]1C(=O)N[C@@H](Cc1ccccc1)C(=O)N[C@@H](Cc1ccccc1)C(N)=O [N-Ac-Tyr-Pro-Phe-Phe-NH2]
- pain relief (knee pain): complete relief of pain
- recurrence (knee pain): pain free the next morning and thereafter
- time to pain relief (knee pain): less than 1 minute
- headache relief (hangover headache): almost immediate, complete, relief of their aching head
- pain relief ([1]; 0.8% (w/v) in WEP442, topical): complete loss of pain
- time to pain relief ([1]; 0.8% (w/v) in WEP442, topical): ≤ 2 min
- duration of pain relief ([1]; 0.8% (w/v) in WEP442, topical in the afternoon): Pain did not recur until the next morning
- duration of lowered degree of pain [2]: about 7 hours
- pain in both knees and the lower back ([2]; after 4 hours): diminished to very low level
- pain in both knees and the lower back ([2]; over the next 2 hours): diminished substantially
- time to pain relief (severe frontal headaches; 1% (w/v) in WEP442, topical): 3 to 4 min
- pain relief (severe frontal headaches; 1% (w/v) in WEP442, topical at onset): completely interrupted all pain
- pain relief ([3]; 1% (w/v) in WEP442, daily topical to upper back): relieved the upper back pain completely
- duration of pain relief ([3]; 1% (w/v) in WEP442, topical): 10 to 12 h
- time to pain relief ([3]; 1% (w/v) in WEP442, topical): 3 to 4 min
- paresthesia of the fingers ([3]; 1% (w/v) in WEP442, topical to upper back): persisted without any discernible change
- analgesic effect grade [4]: 3+ (3+ (75%): complete relief of pain for less than 4 hours)
- discomfort from the injection [4]: Mild discomfort from the injection
- additional duration of substantially diminished knee pain ([4]; after the first 24 hours): 16 h
- knee pain ([4]; over the ensuing 24 hours): the knee pain gradually diminished
- erythema, swelling and pain (hallux valgus (bunion); 1% (w/v) in WEP442, morning after second application): the erythema was gone, the swelling had subsided, and there was no pain
- duration of improvement (hallux valgus (bunion); 1% (w/v) in WEP442, topical): 2 weeks
- pain relief (hallux valgus (bunion); 1% (w/v) in WEP442, topical): all pain was gone
- time to pain relief (hallux valgus (bunion); 1% (w/v) in WEP442, topical): ≤ 15 min
- pain relief [5]: instantaneous total relief of pain
- recurrence [5]: No pain returned
- pain relief ([6]; 0.8% (w/v) in WEP442, after 1 week, one application every 12 hours): complete relief of pain was continually sustained
- pain relief ([6]; 0.8% (w/v) in WEP442, one topical application, within 20 minutes): a degree of improvement of pain
- pain relief ([6]; 0.8% (w/v) in WEP442, second application, within another 20 minutes): almost complete relief

Compound: N-Pg-Tyr-Pro-Phe-Phe-NH2 ([pGlu]YPFF-NH2; SMILES NC(=O)[C@H](Cc1ccccc1)NC(=O)[C@H](Cc1ccccc1)NC(=O)[C@@H]1CCCN1C(=O)[C@H](Cc1ccc(O)cc1)NC(=O)[C@@H]1CCC(=O)N1)
- knee pain compared to several months earlier [7]: the knee pain was substantially less

Source: US20190248834A1, “ENDOMORPHIN-2, TETRAPEPTIDE DERIVATIVES THEREOF, AND USES THEREOF” (priority 2016, published 2019)
